# Test results as given in patent US7723068B2, “Gene cluster involved in safracin biosynthesis and its uses for genetic engineering” (PharmaMar, S.A., priority 2002, dated 2010).
# How the values were obtained:
# [1] = system: Bacillus subtilis; test: Antimicrobial activity on solid medium, disk; type: cell-based; settings: 10 μg/disk (6 mm diameter); for zone of inhibition at 10 µg/disc: Bacillus subtilis
# Method: Antimicrobial activity: On solid medium Bacillus subtilis. 10 μg/disk (6 mm diameter): 10 mm inhibition zone Spectroscopic Data: […]
# [2] = Antibacterial and antitumoral activities, general statements; settings: compared with safracin A / safracin B
# [3] = system: DU-145; settings: Prostate
# [4] = system: LN-caP; settings: Prostate
# [5] = system: IGROV; settings: Ovary
# [6] = system: IGROV-ET; settings: Ovary
# [7] = system: SK-BR3; settings: Breast
# [8] = system: SK-MEL-28; settings: Melanoma
# [9] = system: A549; settings: NSCL
# [10] = system: K-562; settings: Leukemia
# [11] = system: PANC1; settings: Pancreas
# [12] = system: HT29; settings: Colon
# [13] = system: LOVO; settings: Colon
# [14] = system: LOVO-DOX; settings: Colon
# [15] = system: HELA; settings: Cervix
# [16] = system: HELA-APL; settings: Cervix
# [17] = system: DU-145; test: cells; settings: Homo sapiens; for GI50: DU-145, read-out: GI50 DU-145; for CC50: DU-145, read-out: LC50 DU-145
# [18] = system: LN-caP; test: cells; settings: Homo sapiens, LNCaP; for GI50: read-out: GI50 LN-caP; for CC50: read-out: LC50 LN-caP
# [19] = system: IGROV; test: cells; settings: for GI50: read-out: GI50 IGROV; for CC50: read-out: LC50 IGROV
# [20] = system: IGROV-ET; test: cells; settings: for GI50: read-out: GI50 IGROV-ET; for CC50: read-out: LC50 IGROV-ET
# [21] = system: SK-BR3; test: cells; settings: Homo sapiens; for GI50: SK-BR-3, read-out: GI50 SK-BR3; for CC50: SK-BR-3, read-out: LC50 SK-BR3
# [22] = system: SK-MEL-28; test: cells; settings: Homo sapiens; for GI50: SK-MEL-28, read-out: GI50 SK-MEL-28; for CC50: SK-MEL-28, read-out: LC50 SK-MEL-28
# [23] = system: A549; test: cells; settings: Homo sapiens; for GI50: A549, read-out: GI50 A549; for CC50: A549, read-out: LC50 A549
# [24] = system: K-562; test: cells; settings: Homo sapiens; for GI50: K562, read-out: GI50 K-562; for CC50: K562, read-out: LC50 K-562
# [25] = system: PANC1; test: cells; settings: Homo sapiens; for GI50: PANC-1, read-out: GI50 PANC1; for CC50: PANC-1, read-out: LC50 PANC1
# [26] = system: HT29; test: cells; settings: Homo sapiens; for GI50: HT-29, read-out: GI50 HT29; for CC50: HT-29, read-out: LC50 HT29
# [27] = system: LOVO; test: cells; settings: Homo sapiens; for GI50: read-out: GI50 LOVO; for CC50: read-out: LC50 LOVO
# [28] = system: LOVO-DOX; test: cells; settings: for GI50: read-out: GI50 LOVO-DOX; for CC50: read-out: LC50 LOVO-DOX
# [29] = system: HELA; test: cells; settings: Homo sapiens; for GI50: read-out: GI50 HELA; for CC50: read-out: LC50 HELA
# [30] = system: HELA-APL; test: cells; settings: for GI50: read-out: GI50 HELA-APL; for CC50: read-out: LC50 HELA-APL
# [31] = system: PROTEIN synthesis; test: Secondary Screening, Macromolecules Synthesis PROTEIN; type: cell-based; settings: Secondary Evaluation
# [32] = system: DNA synthesis; test: Secondary Screening, Macromolecules Synthesis DNA; type: cell-based; settings: Secondary Evaluation
compound,measurement,setting,value
COc1c(C)cc2c(c1O)C1NC(C2)C(O)N2C(CNC(=O)C(C)N)c3c(cc(C)c(OC)c3O)CC12 (stereo not shown) [Safracin P-19B],Antimicrobial activity: inhibition zone,[1],NO ACTIVE
same,antibacterial and antitumoral activities (in words),[2],appear to loose their activity
same,TGI DU-145,[3],>19.5 µM
same,TGI LN-caP,[4],8.06 µM
same,TGI IGROV,[5],14.8 µM
same,TGI IGROV-ET,[6],>19.5 µM
same,TGI SK-BR3,[7],19.2 µM
same,TGI SK-MEL-28,[8],>19.5 µM
same,TGI A549,[9],>19.5 µM
same,TGI K-562,[10],5.77 µM
same,TGI PANC1,[11],>19.5 µM
same,TGI HT29,[12],>19.5 µM
same,TGI LOVO,[13],>19.5 µM
same,TGI LOVO-DOX,[14],>19.5 µM
same,TGI HELA,[15],16.1 µM
same,TGI HELA-APL,[16],10 µM
same,GI50,[17],17 µM
same,CC50,[17],> 19.5 µM
same,GI50,[18],3.9 µM
same,CC50,[18],16.7 µM
same,GI50,[19],5.42 µM
same,CC50,[19],> 19.5 µM
same,GI50,[20],8.74 µM
same,CC50,[20],> 19.5 µM
same,GI50,[21],7.08 µM
same,CC50,[21],> 19.5 µM
same,GI50,[22],7.9 µM
same,CC50,[22],> 19.5 µM
same,GI50,[23],> 19.5 µM
same,CC50,[23],> 19.5 µM
same,GI50,[24],2.38 µM
same,CC50,[24],14 µM
same,GI50,[25],18.1 µM
same,CC50,[25],> 19.5 µM
same,GI50,[26],15.5 µM
same,CC50,[26],> 19.5 µM
same,GI50,[27],> 19.5 µM
same,CC50,[27],> 19.5 µM
same,GI50,[28],14.4 µM
same,CC50,[28],> 19.5 µM
same,GI50,[29],6.73 µM
same,CC50,[29],> 19.5 µM
same,GI50,[30],4.8 µM
same,CC50,[30],19.5 µM
COc1c(C)cc2c(c1O)C1C3Cc4cc(C)c(OC)c(O)c4C(CNC(=O)C(C)N)N3CC(C2)N1C (stereo not shown) [Safracin P-22A],Antimicrobial activity: inhibition zone,[1],NO ACTIVE
same,antibacterial and antitumoral activities (in words),[2],appear to loose their activity
same,TGI DU-145,[3],>19.6 µM
same,TGI LN-caP,[4],9.26 µM
same,TGI IGROV,[5],19.6 µM
same,TGI IGROV-ET,[6],>19.6 µM
same,TGI SK-BR3,[7],>19.6 µM
same,TGI SK-MEL-28,[8],13.3 µM
same,TGI A549,[9],>19.6 µM
same,TGI K-562,[10],7.93 µM
same,TGI PANC1,[11],>19.6 µM
same,TGI HT29,[12],>19.6 µM
same,TGI LOVO,[13],>19.6 µM
same,TGI LOVO-DOX,[14],>19.6 µM
same,TGI HELA,[15],>19.6 µM
same,TGI HELA-APL,[16],19.6 µM
same,GI50,[17],> 19.6 µM
same,CC50,[17],> 19.6 µM
same,GI50,[18],4.19 µM
same,CC50,[18],> 19.6 µM
same,GI50,[19],7.74 µM
same,CC50,[19],> 19.6 µM
same,GI50,[20],13 µM
same,CC50,[20],> 19.6 µM
same,GI50,[21],12.7 µM
same,CC50,[21],> 19.6 µM
same,GI50,[22],5.93 µM
same,CC50,[22],> 19.6 µM
same,GI50,[23],> 19.6 µM
same,CC50,[23],> 19.6 µM
same,GI50,[24],3.15 µM
same,CC50,[24],19.6 µM
same,GI50,[25],> 19.6 µM
same,CC50,[25],> 19.6 µM
same,GI50,[26],12.6 µM
same,CC50,[26],> 19.6 µM
same,GI50,[27],> 19.6 µM
same,CC50,[27],> 19.6 µM
same,GI50,[28],> 19.6 µM
same,CC50,[28],> 19.6 µM
same,GI50,[29],8.75 µM
same,CC50,[29],> 19.6 µM
same,GI50,[30],7.66 µM
same,CC50,[30],> 19.6 µM
COC1=C(C)C(=O)C2=C(C1=O)C(CNC(=O)C(C)N)N1CC3Cc4cc(C)c(OC)c(O)c4C(N3)C1C2 (stereo not shown) [Safracin E],IC50,[31],15.7 µM
same,IC50,[32],> 19.6 µM
same,zone of inhibition at 10 µg/disc,[1],9.5 mm
same,antibacterial and antitumoral activities (in words),[2],"the same antibacterial and antitumoral activities as safracin B and safracin A, respectively"
same,TGI DU-145,[3],19.6 µM
same,TGI LN-caP,[4],7.7 µM
same,TGI IGROV,[5],8.85 µM
same,TGI IGROV-ET,[6],8.25 µM
same,TGI SK-BR3,[7],9.24 µM
same,TGI SK-MEL-28,[8],6.93 µM
same,TGI A549,[9],>19.6 µM
same,TGI K-562,[10],8.21 µM
same,TGI PANC1,[11],14.7 µM
same,TGI HT29,[12],19.6 µM
same,TGI LOVO,[13],>19.6 µM
same,TGI LOVO-DOX,[14],9.44 µM
same,TGI HELA,[15],7.29 µM
same,TGI HELA-APL,[16],7.25 µM
same,GI50,[17],8.34 µM
same,CC50,[17],> 19.6 µM
same,GI50,[18],3.86 µM
same,CC50,[18],15.4 µM
same,GI50,[19],4.5 µM
same,CC50,[19],17.4 µM
same,GI50,[20],4.54 µM
same,CC50,[20],14.9 µM
same,GI50,[21],5.05 µM
same,CC50,[21],17 µM
same,GI50,[22],3.94 µM
same,CC50,[22],12.2 µM
same,GI50,[23],19.6 µM
same,CC50,[23],> 19.6 µM
same,GI50,[24],4.25 µM
same,CC50,[24],15.9 µM
same,GI50,[25],6.05 µM
same,CC50,[25],> 19.6 µM
same,GI50,[26],7.89 µM
same,CC50,[26],> 19.6 µM
same,GI50,[27],7.15 µM
same,CC50,[27],> 19.6 µM
same,GI50,[28],5.07 µM
same,CC50,[28],17.5 µM
same,GI50,[29],4.15 µM
same,CC50,[29],12.8 µM
same,GI50,[30],4.03 µM
same,CC50,[30],13 µM
COc1c(C)cc2c(c1O)C1C3Cc4cc(C)c(OC)c(O)c4C(CNC(=O)C(C)N)N3C(O)C(C2)N1C (stereo not shown) [Safracin P-22B],zone of inhibition at 10 µg/disc,[1],10 mm
same,antibacterial and antitumoral activities (in words),[2],appear to loose their activity
same,TGI DU-145,[3],8.62 µM
same,TGI LN-caP,[4],0.608 µM
same,TGI IGROV,[5],2.3 µM
same,TGI IGROV-ET,[6],7.04 µM
same,TGI SK-BR3,[7],2.28 µM
same,TGI SK-MEL-28,[8],0.999 µM
same,TGI A549,[9],8.83 µM
same,TGI K-562,[10],0.467 µM
same,TGI PANC1,[11],11.7 µM
same,TGI HT29,[12],2.75 µM
same,TGI LOVO,[13],6.84 µM
same,TGI LOVO-DOX,[14],19 µM
same,TGI HELA,[15],1.83 µM
same,TGI HELA-APL,[16],0.932 µM
same,GI50,[17],4.58 µM
same,CC50,[17],16.2 µM
same,GI50,[18],0.308 µM
same,CC50,[18],1.2 µM
same,GI50,[19],0.849 µM
same,CC50,[19],12.1 µM
same,GI50,[20],3.02 µM
same,CC50,[20],16.5 µM
same,GI50,[21],0.824 µM
same,CC50,[21],8.85 µM
same,GI50,[22],0.52 µM
same,CC50,[22],2.01 µM
same,GI50,[23],4.71 µM
same,CC50,[23],16.6 µM
same,GI50,[24],0.113 µM
same,CC50,[24],1.84 µM
same,GI50,[25],4.77 µM
same,CC50,[25],> 19 µM
same,GI50,[26],1.01 µM
same,CC50,[26],18.6 µM
same,GI50,[27],2.54 µM
same,CC50,[27],18.4 µM
same,GI50,[28],6.95 µM
same,CC50,[28],> 19 µM
same,GI50,[29],0.761 µM
same,CC50,[29],7.42 µM
same,GI50,[30],0.465 µM
same,CC50,[30],1.86 µM
